Experimental data reported in PubChem BioAssay (NCI).
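Briefly, cells in 96-well plates were exposed to five compound concentrations for 48 h, and endpoints were estimated by linear interpolation. The concentration for full growth arrest is given as TGI.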

Legend:
Assay in all cases: NCI anticancer screen, dose series, 48 h
786-0 renal = tested on: 786-0 renal
A498 renal = tested on: A498 renal
A549 NSCLC = tested on: A549 NSCLC
ACHN renal = tested on: ACHN renal
CAKI-1 renal = tested on: CAKI-1 renal
CCRF-CEM leukemia = tested on: CCRF-CEM leukemia
COLO 205 colon = tested on: COLO 205 colon
DLD-1 colon = tested on: DLD-1 colon
DMS 114 small cell lung = tested on: DMS 114 small cell lung
DMS 273 small cell lung = tested on: DMS 273 small cell lung
EKVX NSCLC = tested on: EKVX NSCLC
HCC-2998 colon = tested on: HCC-2998 colon
HCT-116 colon = tested on: HCT-116 colon
HCT-15 colon = tested on: HCT-15 colon
HL-60(TB) leukemia = tested on: HL-60(TB) leukemia
HOP-62 NSCLC = tested on: HOP-62 NSCLC
HOP-92 NSCLC = tested on: HOP-92 NSCLC
HT29 colon = tested on: HT29 colon
IGROV1 ovarian = tested on: IGROV1 ovarian
K-562 leukemia = tested on: K-562 leukemia
KM12 colon = tested on: KM12 colon
KM20L2 colon = tested on: KM20L2 colon
LOX IMVI melanoma = tested on: LOX IMVI melanoma
LXFL 529 NSCLC = tested on: LXFL 529 NSCLC
M14 melanoma = tested on: M14 melanoma
M19-MEL melanoma = tested on: M19-MEL melanoma
MALME-3M melanoma = tested on: MALME-3M melanoma
MOLT-4 leukemia = tested on: MOLT-4 leukemia
NCI-H226 lung = tested on: NCI-H226 lung
NCI-H23 lung = tested on: NCI-H23 lung
NCI-H460 lung = tested on: NCI-H460 lung
NCI-H522 lung = tested on: NCI-H522 lung
OVCAR-3 ovarian = tested on: OVCAR-3 ovarian
OVCAR-4 ovarian = tested on: OVCAR-4 ovarian
OVCAR-5 ovarian = tested on: OVCAR-5 ovarian
OVCAR-8 ovarian = tested on: OVCAR-8 ovarian
RPMI-8226 leukemia = tested on: RPMI-8226 leukemia
RXF-631 renal = tested on: RXF-631 renal
SF-268 CNS = tested on: SF-268 CNS
SF-295 CNS = tested on: SF-295 CNS
SF-539 CNS = tested on: SF-539 CNS
SK-MEL-2 melanoma = tested on: SK-MEL-2 melanoma
SK-MEL-28 melanoma = tested on: SK-MEL-28 melanoma
SK-MEL-5 melanoma = tested on: SK-MEL-5 melanoma
SK-OV-3 ovarian = tested on: SK-OV-3 ovarian
SN12C renal = tested on: SN12C renal
SNB-19 CNS = tested on: SNB-19 CNS
SNB-75 CNS = tested on: SNB-75 CNS
SW-620 colon = tested on: SW-620 colon
TK-10 renal = tested on: TK-10 renal
U251 CNS = tested on: U251 CNS
UACC-257 melanoma = tested on: UACC-257 melanoma
UACC-62 melanoma = tested on: UACC-62 melanoma
UO-31 renal = tested on: UO-31 renal
XF 498 CNS = tested on: XF 498 CNS

Compound: CC1SC2=NC3=C(c4ccccc4C3=O)C(c3ccccc3Cl)N2C1=O (stereo not given)
- TGI (786-0 renal): > 100 µM
- TGI (A498 renal): > 100 µM
- TGI (A549 NSCLC): > 100 µM
- TGI (ACHN renal): > 100 µM
- TGI (CAKI-1 renal): > 100 µM
- TGI (CCRF-CEM leukemia): > 100 µM
- TGI (COLO 205 colon): > 100 µM
- TGI (DLD-1 colon): > 100 µM
- TGI (DMS 114 small cell lung): > 100 µM
- TGI (DMS 273 small cell lung): > 100 µM
- TGI (EKVX NSCLC): > 100 µM
- TGI (HCC-2998 colon): > 100 µM
- TGI (HCT-116 colon): > 100 µM
- TGI (HCT-15 colon): > 100 µM
- TGI (HL-60(TB) leukemia): > 100 µM
- TGI (HOP-62 NSCLC): > 100 µM
- TGI (HOP-92 NSCLC): > 100 µM
- TGI (HT29 colon): > 100 µM
- TGI (IGROV1 ovarian): > 100 µM
- TGI (K-562 leukemia): > 100 µM
- TGI (KM12 colon): > 100 µM
- TGI (KM20L2 colon): > 100 µM
- TGI (LOX IMVI melanoma): > 100 µM
- TGI (LXFL 529 NSCLC): > 100 µM
- TGI (M14 melanoma): > 100 µM
- TGI (M19-MEL melanoma): > 100 µM
- TGI (MALME-3M melanoma): > 100 µM
- TGI (MOLT-4 leukemia): > 100 µM
- TGI (NCI-H226 lung): > 100 µM
- TGI (NCI-H23 lung): > 100 µM
- TGI (NCI-H460 lung): > 100 µM
- TGI (NCI-H522 lung): 96.3 µM
- TGI (OVCAR-3 ovarian): > 100 µM
- TGI (OVCAR-4 ovarian): > 100 µM
- TGI (OVCAR-5 ovarian): > 100 µM
- TGI (OVCAR-8 ovarian): > 100 µM
- TGI (RPMI-8226 leukemia): > 100 µM
- TGI (RXF-631 renal): > 100 µM
- TGI (SF-268 CNS): > 100 µM
- TGI (SF-295 CNS): > 100 µM
- TGI (SF-539 CNS): > 100 µM
- TGI (SK-MEL-2 melanoma): > 100 µM
- TGI (SK-MEL-28 melanoma): > 100 µM
- TGI (SK-MEL-5 melanoma): > 100 µM
- TGI (SK-OV-3 ovarian): > 100 µM
- TGI (SN12C renal): > 100 µM
- TGI (SNB-19 CNS): > 100 µM
- TGI (SNB-75 CNS): > 100 µM
- TGI (SW-620 colon): > 100 µM
- TGI (TK-10 renal): > 100 µM
- TGI (U251 CNS): > 100 µM
- TGI (UACC-257 melanoma): > 100 µM
- TGI (UACC-62 melanoma): > 100 µM
- TGI (UO-31 renal): > 100 µM
- TGI (XF 498 CNS): > 100 µM
